Here are results for 1 substance from US8138304B2, “Neural regeneration peptides and formulations thereof” (Neuren Pharmaceuticals Limited, priority 2005, dated 2012).

Where no end group is shown, it is not given here.

Assay type in all cases: cell-based
Assay [1] deals with human primary trophoblasts. Description: Trophoblast haptotactic migration (Boyden chamber) assay. Particulars: 0.1 ng/ml coating, 100 fM in inserts; 22 hrs. As for the experimental part: Human trophoblast cells were isolated from term placentas with prior approval by the Ethics Committee of the University of Auckland and consent of the patients. The maternal decidua was removed, exposing the villous interior of the placenta. Pieces of villous tissue were cut out and washed thoroughly with PBS before digestion using 0.25% trypsin. The digest was then diluted in Locke Ringers Buffer and DNAase I. Digestion of connective tissue surrounding the placental cells was carried out while stirring the mixture with a magnetic stirrer at a temperature of 37° C. The process was repeated 8 times, with the last 6 supernatants being collected in a bottle containing fetal bovine serum (FBS). The digestion step produced a heterogeneous dispersed cell preparation. The pooled supernates was centrifuged for 7 minutes at 1200 rpm. The cell pellet was resuspended in PBS and centrifuged. […]
Cells were then purified using a percoll gradient (5, 20, 30, 35, 40, 50 and 60%). […] This band was collected, the cells washed in M199 medium centrifuged and finally counted and plated according to the methods of Keelan et al, 1998. […]
Under control conditions, the bottom of the chamber is not pre-coated with a putative chemoattractive agent. […] Thus, the number of migratory cells can be quantified. […]

Assay [2] has as its system mouse neural stem cells (MEB-5 cells). Put plainly: Haptotactic migration assay, physiological (injury-free) conditions. The conditions noted are these: 0.1 ng/ml NRP coating. The procedure: An NRP was tested for migration-inducing/chemoattractive activity on mouse neural stem cells in a haptotactic migration assay as described below.
Control wells of Transwell plates (Corning) with 12 μm pore size were coated in 1.5 ml of the BSA/PBS vehicle. Remaining plates were coated using 0.1 ng/ml of NRP (SEQ ID NO: 1) (prepared in PBS containing 10 ug/ml BSA).
Laminin (7 μg/ml) was used as extracellular matrix (ECM) coating for mouse primary stem cells. The matrix was incubated at 37° C.; 5% C02 for 2 hrs at room temperature. The cells were seeded onto the inserts (30,000 cells per well). Plates were fixed at 1-2 days in vitro (DIV).
A 5 ug/mL PDL/PLL mixture (in PBS) was used to coat inserts. Subsequently the inserts were rinsed with MilliQ water.
Inserts were discarded and wells fixed in successive dilutions of PFA (0.4, 1.2, 3 and 4%) for 3-5 min in each dilution. […] The wells were rinsed and stored in PBS until counting.

The subject of assay [3] is embryonic mouse neural stem cells (NSCs). Put plainly: Haptotactic migration assay in injury conditions (activated astroglial monolayer). Particulars: 100 fM in lower compartment; TGFβ1 and scratch-activated astrocyte monolayer; 24 hrs. As for the experimental part: The NRP of SEQ ID NO: 1 was tested for migration-inducing/chemoattractive activity on mouse neural stem cells in a haptotactic migration assay in injury conditions, as described below.
P1 (postnatal day 1) Wistar or Sprague Dawley rats were sacrificed by decapitation. Cortical hemispheres were removed and collected into separate tubes containing 4 ml DMEM—1 cortex per tube. The tissue was mechanically triturated. Cells were transferred into medium using a sterile pipette and filtered through a 100 um cell strainer into a 50 ml centrifuge tube. Each tube was stocked up to 50 ml with DMEM. The tubes were centrifuged for 5 mins at 350×g at 22° C. The cells were resuspended in 40 ml of DMEM+10% FBS. The cells were then seeded into a 12-well plate+5 nM ocadaic acid (to remove neurons by inducing apoptotic cell death) and incubated at 37° C./10% CO2 for 24 hrs […]. The medium+FBS was replaced after 1 day with fresh DMEM+10% FBS. The cell growth was monitored until confluency (14-18 days).
Induction of injuries to the astrocytic monolayer was accomplished using the pharmacological agent transforming growth factor β1 (TGFβ1) and simultaneous mechanical scratching of the monolayer in order to activate astrocytics. […]
Migrated stem cell number of labelled cells were analysed after 24 hrs by a fluorescence-based computerized imaging system (Discovery-1).

For the substance “REGRRAAPGRAGG-NH2 (listed as Homo sapiens) [SEQ ID NO: 1, 13-mer NRP analogue]”, the “increase of migratory cells” value in assay [1] amounted to 95%. Besides, the “more cells migrating in comparison with BSA-vehicle” value in assay [2] was 55.4%. Also, the “more stem cells migrated than vehicle-treated controls” value in assay [3] turned out to be 69.1%.
